In patent US20250171417A1, “HETEROCYCLIC DERIVATIVE, AND COMPOSITION AND PHARMACEUTICAL USE THEREOF” (Xizang Haisco Pharmaceutical Co., Ltd., priority 2021, published 2025):
Where two headings read alike, the source gives them in different places.

Tests used:
[1] = test system: Prostate cancer cells 22RV1; assay: Experiment on inhibiting 22RV1 cell proliferation (CellTiter-Glo, 7 days); format: cell-based; details: Homo sapiens, 168 h, 22RV1 cells, 7 days incubation, read-out: IC50 values for inhibition of 22RVI cells
In short: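 22RV1 cells at 2000/well in 1% charcoal-stripped-FBS phenol red-free medium, treated next day with compound for 7 days at 37 °C, 5% CO2. Viability by CellTiter-Glo luminescence; inhibition relative to DMSO vehicle, IC50 from dose-response fit.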

[2] = target: T1, AR splice variant 7 (AR-V7) (Homo sapiens, UniProt P10275); assay: Degradation experiment on AR splice variant 7 (AR-V7) in 22RV1 cells; format: cell-based; details: 24 h
T1 construct: host or cells: 22RV1 prostate cancer cells
T1 sequence (P10275 1-644 isoform P10275-3): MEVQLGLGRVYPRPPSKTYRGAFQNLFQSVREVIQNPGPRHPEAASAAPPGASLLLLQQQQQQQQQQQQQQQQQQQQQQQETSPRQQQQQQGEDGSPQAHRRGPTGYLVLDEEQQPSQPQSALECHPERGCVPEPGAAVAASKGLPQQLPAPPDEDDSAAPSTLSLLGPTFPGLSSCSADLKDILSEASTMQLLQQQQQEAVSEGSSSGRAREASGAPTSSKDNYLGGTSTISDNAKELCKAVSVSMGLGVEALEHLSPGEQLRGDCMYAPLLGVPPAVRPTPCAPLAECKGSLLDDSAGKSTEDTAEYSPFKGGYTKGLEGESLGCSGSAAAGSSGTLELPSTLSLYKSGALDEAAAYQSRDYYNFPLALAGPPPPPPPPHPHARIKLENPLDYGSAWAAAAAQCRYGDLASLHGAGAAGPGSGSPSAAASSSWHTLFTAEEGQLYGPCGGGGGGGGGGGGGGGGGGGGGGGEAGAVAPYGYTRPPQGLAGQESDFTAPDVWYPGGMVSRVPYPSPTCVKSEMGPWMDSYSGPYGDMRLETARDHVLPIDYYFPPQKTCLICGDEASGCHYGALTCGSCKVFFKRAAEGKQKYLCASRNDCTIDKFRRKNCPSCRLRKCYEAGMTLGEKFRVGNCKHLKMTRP
Description: Prostate cancer cells 22RV1 were purchased from ATCC, the cell medium was 1640+10% FBS, and the cells were cultured in an incubator at 37° C. under 5% CO2. On day 1, the cells in an exponential phase were collected. With a 1% css-FBS phenol red-free medium, the cell suspension was adjusted to a corresponding concentration and plated into a 6-well plate at 1 mL/well and 300000 cells/well. The next day, a 1% css-FBS phenol-free medium containing the compound to be tested was added, a 1% css-FBS phenol-free medium containing 0.2% DMSO was added to one well as DMSO vehicle control, and the 6-well plate was cultured in an incubator at 37° C. under 5% CO2. After 24 h, the cells were digested with pancreatin and collected into a 1.5 mL centrifuge tube. 15 μL of RIPA lysate (containing 1× protease inhibitor cocktail) was added to each well, and the cells were lysed on ice for 15 min and then centrifuged at 12000 g at 4° C.′ for 10 min. The supernatant protein samples were collected, and protein quantification was performed by a BCA method. AR-V7 was detected using fully automatic protein expression quantitative analysis, which involved diluting the protein to be tested to 2 mg/mL, 4 μL of the diluted protein samples were added to 1 μL of 5× Master Mix (provided in the kit), and the prepared samples were denatured at 95° C. for 5 min and placed on ice for use. The primary antibodies. AR V7 (CST, 19672S) and β-actin (CST, 3700), were diluted with Antibody Diluent II (provided in the kit) at a dilution ratio of 1:10 and 1:500, respectively. The secondary antibody was a mixed goat anti-mouse and goat anti-rabbit secondary antibody in a ratio of 1:1, and the color development solution was a mixed solution of Lumino-S and Peroxide in a ratio of 1:1. The prepared reagents were successively added to an assay plate according to instructions of the kit and detected on an instrument. Western blot band processing was performed using “Compass for SW”, a fully automatic protein expression quantitative analysis software, in which western blot bands were automatically simulated based on signal values. The degradation rate of AR-V7 (4) relative to vehicle control at different compound concentrations was calculated according to formula (4), wherein AR-V7compound was the relative peak area of AR-V7 in the treated group, and AR-V7solvent was the relative peak area of AR-V7 in the vehicle control group.
DC50 calculation: the compound concentration DC50 values at which the degradation rate of AR-V7 was 50% were calculated using Graphpad software and analyzed using log (inhibitor) vs. response-Variable slope (four parameters) function according to formula (4).

[3] = Pharmacokinetic test in rats; format: in vivo; details: rat, plasma, po, male SD rats; for bioavailability: i.g. 5 mg/kg vs intravenous 2 mg/kg; for AUC(0-t): i.g. 5 mg/kg
Description: Test objective: In this experiment, a single dose of each test compound was administered to SD rats intravenously and intragastrically, and the concentrations of the test compounds in plasma of rats were measured to evaluate the pharmacokinetic characteristics of the test compounds in rats.
Experimental animals: male SD rats, 200-250 g, 6-8 weeks old, 6 rats/compound, purchased from Chengdu Ddossy Experimental Animals Co., Ltd.
Experimental method: on the day of the test, 6 SD rats were randomly grouped according to their body weight; the animals were fasted with water available for 12 to 14 hours one day before the administration of a test compound, and were fed 4 hours after the administration.
Sampling: Before and after the administration, 0.1 mL of blood samples were drawn from the orbits of the animals under isoflurane anesthesia, and placed in an EDTAK2 centrifuge tube. Centrifugation was carried out at 5000 rpm at 4° C. for 10 min, and the plasma was collected.
Time points for plasma collection in IV&PO group: 0, 5 min, 15 min, 30 min, 1 h, 2 h, 4 h, 6 h, 8 h, and 24 h.
Before analysis and detection, all samples were stored at −60° C. The samples were analyzed quantitatively by LC-MS/MS.

[4] = cells with nM printed beside the value
[5] = cells without a unit of their own (μM)

Row | Structure (SMILES) | IC50 [1, 4] | DC50 [2] | bioavailability [3] | AUC(0-t) [3] | IC50 [1, 5]
1 | Cc1nn(C2(C(=O)Nc3ccc(C(F)(F)F)cc3Cl)CCC2)cc1C#CC1CN(c2ccc3c(c2)C(=O)N(C2CCC(=O)NC2=O)C3=O)C1 (stereo not drawn) [Compound 164, N-(2-chloro-4-(trifluoromethyl)phenyl)-1-(4-((1-(2-(2,6-dioxopiperidin-3-yl)-1,3-dioxoisoindolin-5-yl)azetidin-3-yl)ethynyl)-3-methyl-1H-pyrazol-1-yl)cyclobutane-1-carboxamide] | < 50 nM | < 500 nM |  |  | 
2 | O=C1CCC(N2C(=O)c3ccc(N4CC(C#Cc5cnn(C6(C(=O)Nc7ccc(C(F)(F)F)cc7Cl)CCC6)c5)C4)cc3C2=O)C(=O)N1 (stereo not drawn) [Compound 14, N-(2-chloro-4-(trifluoromethyl)phenyl)-1-(4-((1-(2-(2,6-dioxopiperidin-3-yl)-1,3-dioxoisoindolin-5-yl)azetidin-3-yl)ethynyl)-1H-pyrazol-1-yl)cyclobutane-1-carboxamide] | < 50 nM | < 500 nM |  |  | 
3 | CC(C)(C(=O)Nc1ccc(C(F)(F)F)cc1Br)n1cc(C#CC2CN(c3ccc4c(c3)C(=O)N(C3CCC(=O)NC3=O)C4=O)C2)cn1 (stereo not drawn) [Compound 28, N-(2-bromo-4-(trifluoromethyl)phenyl)-2-(4-((1-(2-(2,6-dioxopiperidin-3-yl)-1,3-dioxoisoindolin-5-yl)azetidin-3-yl)ethynyl)-1H-pyrazol-1-yl)-2-methylpropanamide] | < 50 nM | < 500 nM |  |  | 
4 | CC(C)(C(=O)Nc1ccc(C#N)cc1C1CC1)n1cc(C#CC2CN(c3ccc4c(c3)C(=O)N(C3CCC(=O)NC3=O)C4=O)C2)cn1 (stereo not drawn) [Compound 39, N-(4-cyano-2-cyclopropylphenyl)-2-(4-((1-(2-(2,6-dioxopiperidin-3-yl)-1,3-dioxoisoindolin-5-yl)azetidin-3-yl)ethynyl)-1H-pyrazol-1-yl)-2-methylpropanamide] | < 50 nM | < 500 nM |  |  | 
5 | CC(C)(C(=O)Nc1ccc(C#N)c(Cl)c1)n1cc(C#CC2CN(c3ccc4c(c3)C(=O)N(C3CCC(=O)NC3=O)C4=O)C2)cn1 (stereo not drawn) [Compound 12, N-(3-chloro-4-cyanophenyl)-2-(4-((1-(2-(2,6-dioxopiperidin-3-yl)-1,3-dioxoisoindolin-5-yl)azetidin-3-yl)ethynyl)-1H-pyrazol-1-yl)-2-methylpropanamide] | < 50 nM |  | 73 ± 7.2% | 70500 ± 6980 ng·h/mL | 
6 | N#Cc1ccc(NC(=O)Cn2cc(C#CC3CN(c4ccc5c(c4)C(=O)N(C4CCC(=O)NC4=O)C5=O)C3)cn2)cc1C(F)(F)F (stereo not drawn) [Compound 47, N-(4-cyano-3-(trifluoromethyl)phenyl)-2-(4-((1-(2-(2,6-dioxopiperidin-3-yl)-1,3-dioxoisoindolin-S-yl)azetidin-3-yl)ethynyl)-1H-pyrazol-1-yl) acetamide] | < 50 nM |  | 37.7 ± 13% | 11300 ± 3880 ng·h/mL | 
7 | CC(C)(C(=O)Nc1ccc(C#N)cc1Cl)n1cc(C#CC2CN(c3ccc4c(c3)C(=O)N(C3CCC(=O)NC3=O)C4=O)C2)cn1 (stereo not drawn) [Compound 20, N-(2-chloro-4-cyanophenyl)-2-(4-((1-(2-(2,6-dioxopiperidin-3-yl)-1,3-dioxoisoindolin-5-yl)azetidin-3-yl)ethynyl)-1H-pyrazol-1-yl)-2-methylpropanamide] | < 50 nM |  | 62 ± 23% | 16000 ± 5820 ng·h/mL | 
8 | CC(C)(C(=O)Nc1ccc(C#N)c2c1CCCC2)n1cc(C#CC2CN(c3ccc4c(c3)C(=O)N(C3CCC(=O)NC3=O)C4=O)C2)cn1 (stereo not drawn) [Compound 56, N-(4-cyano-5,6,7,8-tetrahydronaphthalen-1-yl)-2-(4-((1-(2-(2,6-dioxopiperidin-3-yl)-1,3-dioxoisoindolin-5-yl)azetidin-3-yl)ethynyl)-1H-pyrazol-1-yl)-2-methylpropanamide] | < 50 nM | < 500 nM |  |  | 
9 | O=C1CCC(N2C(=O)c3cc(F)c(N4CC(C#Cc5cnn(C6(C(=O)Nc7ccc(C(F)(F)F)cc7Cl)CCC6)c5)C4)cc3C2=O)C(=O)N1 (stereo not drawn) [Compound 33] |  |  | 55.3 ± 5.4% | 9390 ± 916 ng·h/mL | < 1000 nM
10 | N#Cc1nn(C2(C(=O)Nc3ccc(C(F)(F)F)cc3Cl)CCC2)cc1C#CC1CN(c2ccc3c(c2)C(=O)N(C2CCC(=O)NC2=O)C3=O)C1 (stereo not drawn) [Compound 160, N-(2-chloro-4-(trifluoromethyl)phenyl)-1-(3-cyano-4-((1-(2-(2,6-dioxopiperidin-3-yl)-1,3-dioxoisoindolin-5-yl)azetidin-3-yl)ethynyl)-1H-pyrazol-1-yl)cyclobutane-1-carboxamide] | < 50 nM | < 500 nM |  |  | 
11 | CC(C)(C(=O)Nc1ccc(C#N)c(Br)c1)n1cc(C#CC2CN(c3ccc4c(c3)C(=O)N(C3CCC(=O)NC3=O)C4=O)C2)cn1 (stereo not drawn) [Compound 37, N-(3-bromo-4-cyanophenyl)-2-(4-((1-(2-(2,6-dioxopiperidin-3-yl)-1,3-dioxoisoindolin-5-yl)azetidin-3-yl)ethynyl)-1H-pyrazol-1-yl)-2-methylpropanamide] | < 50 nM |  | 69.8 ± 28% | 55800 ± 22600 ng·h/mL | 
12 | Cc1cc(NC(=O)C(C)(C)n2cc(C#CC3CN(c4ccc5c(c4)C(=O)N(C4CCC(=O)NC4=O)C5=O)C3)cn2)ccc1C#N (stereo not drawn) [Compound 13, N-(4-cyano-3-methylphenyl)-2-(4-((1-(2-(2,6-dioxopiperidin-3-yl)-1,3-dioxoisoindolin-5-yl)azetidin-3-yl)ethynyl)-1H-pyrazol-1-yl)-2-methylpropanamide] |  |  | 77.8 ± 8.5% | 57800 ± 6300 ng·h/mL | < 1000 nM
13 | CC(C)(C(=O)Nc1ccc(C#N)c(N2CCCC2)c1)n1cc(C#CC2CN(c3ccc4c(c3)C(=O)N(C3CCC(=O)NC3=O)C4=O)C2)cn1 (stereo not drawn) [Compound 38, N-(4-cyano-3-(pyrrolidin-1-yl)phenyl)-2-(4-((1-(2-(2,6-dioxopiperidin-3-yl)-1,3-dioxoisoindolin-5-yl)azetidin-3-yl)ethynyl)-1H-pyrazol-1-yl)-2-methylpropanamide] | < 50 nM |  | 43.5 ± 7.3% | 7200 ± 1210 ng·h/mL | 
